Laboratory results reported in PMC4104544 (Cell, 2014).
pEC50: −log10 of the molar value.

Target: OSBP (oxysterol-binding protein) (Homo sapiens, UniProt P22059)
Test: cell-based

Chain of OSBP (oxysterol-binding protein) (P22059 2-807): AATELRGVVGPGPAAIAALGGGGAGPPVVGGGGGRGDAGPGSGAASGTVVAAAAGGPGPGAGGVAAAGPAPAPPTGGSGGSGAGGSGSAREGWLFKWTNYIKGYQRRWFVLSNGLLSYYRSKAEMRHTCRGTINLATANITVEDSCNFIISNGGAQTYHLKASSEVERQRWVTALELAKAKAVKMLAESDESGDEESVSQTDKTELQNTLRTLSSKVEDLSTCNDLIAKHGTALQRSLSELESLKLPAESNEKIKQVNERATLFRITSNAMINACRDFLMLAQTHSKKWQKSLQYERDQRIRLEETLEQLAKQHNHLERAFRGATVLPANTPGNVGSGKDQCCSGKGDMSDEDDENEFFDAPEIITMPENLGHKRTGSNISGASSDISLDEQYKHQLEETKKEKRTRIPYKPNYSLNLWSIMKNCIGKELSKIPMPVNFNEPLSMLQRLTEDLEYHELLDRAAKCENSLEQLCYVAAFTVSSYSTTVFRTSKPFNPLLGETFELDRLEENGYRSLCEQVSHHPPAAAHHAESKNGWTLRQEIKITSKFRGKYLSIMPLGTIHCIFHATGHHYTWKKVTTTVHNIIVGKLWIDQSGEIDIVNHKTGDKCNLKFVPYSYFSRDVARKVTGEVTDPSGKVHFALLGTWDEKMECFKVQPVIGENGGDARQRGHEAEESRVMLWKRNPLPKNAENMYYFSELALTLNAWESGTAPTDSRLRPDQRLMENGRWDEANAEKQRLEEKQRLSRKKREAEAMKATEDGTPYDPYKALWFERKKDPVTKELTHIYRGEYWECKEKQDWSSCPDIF
Chain of OSBP (oxysterol-binding protein) (O75344 whole entry partner): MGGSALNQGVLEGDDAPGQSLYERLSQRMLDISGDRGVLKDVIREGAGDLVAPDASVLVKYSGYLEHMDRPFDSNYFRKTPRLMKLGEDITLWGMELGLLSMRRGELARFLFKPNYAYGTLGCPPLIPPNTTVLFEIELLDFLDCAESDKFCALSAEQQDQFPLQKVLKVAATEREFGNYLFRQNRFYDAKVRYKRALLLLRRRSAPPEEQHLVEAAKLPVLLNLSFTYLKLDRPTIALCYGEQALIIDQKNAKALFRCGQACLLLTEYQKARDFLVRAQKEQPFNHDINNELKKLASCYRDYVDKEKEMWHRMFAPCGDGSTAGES

`COc1ccc(C(=O)O[C@H]2[C@H](O[C@@H]3[C@@H](OC(C)=O)[C@H](O[C@H]4C[C@H]5[C@@H]6CC=C7C[C@@H](O)CC[C@]7(C)[C@H]6CC[C@]5(C)[C@@]4(O)[C@H](C)C(=O)CCC(C)C)OC[C@@H]3O)OC[C@@H](O)[C@@H]2O)cc1` [OSW-1] gave a pEC50 of 7.22.
